Measurements from PMC10569044, “Methylation and Demethylation of Emerging Contaminants Changed Bioaccumulation and Acute Toxicity in Daphnia magna” (Environmental Science & Technology, 2023).
In brackets after ≈: the same amount, converted by molar mass. Like-named read-outs stand apart in the source and are kept apart here.

Key:
D. magna [1] = details: in vivo
D. magna [2] = details: for BCF in vivo (dynamic BCF): ku/kd; for ku (uptake rate constant): 24 h uptake phase; for BCF in vivo ratio / half-life in vivo ratio: methylated derivative over demethylated counterpart
[3] = Description: The pH of the test medium in this study was measured to be 8.50 ± 0.10. The neutral fraction (fn) of the target compounds, their pH-adjusted octanol–water coefficients (log Dow), and their pH-adjusted lipid–water coefficients (log Dlipw) were calculated for this pH condition (Table 1). The calculation and related details are given in the Supporting Information (SI) in Text S1. […]
Text 1. Calculation of physicochemical property parameters
The pH of the artificial freshwater environment for D. magna was measured as […]. The fraction of neutral species (f n) for the test compounds was calculated as the following equation:1–3 […]
where i is 1 for acids and -1 for bases. The pH-adjusted octanol-water coefficient log

in vivo [4] = details: whole D. magna (wet weight), 1 mg L^–1, pH 8.5
in vivo [5] = details: Daphnia magna
Description: Preliminary tests were conducted for each target compound at widely spaced concentrations to identify the concentration range for deriving an accurate dose–response curve. The stock solutions of individual test compounds were prepared in methanol and diluted with 10 mL of aerated AFW to different concentrations in 20 mL glass vials. The methanol volume was set to 100 μL in each vial as the solvent carrier, and a control group containing 100 μL of methanol without the target compound was used as the carrier solvent control. Each test included at least five concentration levels, and the concentrations of test compounds in the medium were experimentally measured (SI, Table S1). Each treatment included four replicates. […] The obtained dose–response data were fitted to the Boltzmann equation:[24] [drawing 1] 1 where C is the measured concentration of the test compound.

[6] = cited from earlier work; for pKa: measured value, ref CompTox Chemicals Dashboard; for logKow: measured values, ref PubChem
D. magna [7] = test: Interconversion (methylation/demethylation) in D. magna
H. azteca and G. pulex = details: cited from earlier work
[8] = end of uptake phase, 24 h, 1 mg L^–1 nominal
[9] = after 2 h of exposure, 1 mg L^–1 nominal
[10] = pH 8.50, calculated, crosschecked with ChemAxon

Compound | BCF in vivo (dynamic BCF) (D. magna [2]; D. magna, 1 mg L^–1 nominal) | ku (uptake rate constant) (D. magna [2]; D. magna) [mL/min/kg] | BCF in vivo ratio (D. magna [2]) | half-life in vivo ratio (D. magna [2]) | fn (neutral fraction) ([3]; pH 8.50, calculated) | half-life (in vivo [4]) [h] | LC50 at 48 h (in vivo [5]) [µg/mL] | logKow [6] | demethylation in D. magna (demethylated product in exposed D. magna) (D. magna [1]) | logDlipw ([3]; pH 8.50, calculated) | logDow [3, 10] | other results
O=C(O)c1ccc(O)cc1 [DM-methylparaben] | 0.9 ± 0.5 L kg^–1, w.w. | 5 ± 0 | 1.0 | 1.0 | 0 | 2.2 | 226 ± 17.3 (≈ 1630 µM) | 1.58 | – | – | – | molar equivalent of demethylated TP relative to methylated parent in D. magna (D. magna [1]; Daphnia magna, 12 h, pH 8.5): about 2.0%; molar equivalent of demethylated TP in D. magna (D. magna [1]; Daphnia magna, 24 h, pH 8.5): 54.8%; concentration in D. magna (D. magna [2]; [8]): 682.7 ± 91.5 ng g^–1 (w.w.); logDow ([3]; pH 8.5): -2.38; pKa [6]: 4.54
COc1ccc2cc([C@H](C)C(=O)O)ccc2c1 [naproxen, reference compound] | 1.5 ± 0.6 L kg^–1, w.w. | – | – | – | – | – | – | – | evident | – | – | –
COc1ccc(NC(C)=O)cc1 [M-acetaminophen] | 10.0 ± 0.0 L kg^–1, w.w. | 288 ± 6.7 | 33.3 | 0.4 | 1 | 0.4 | 32.1 ± 5.7 (≈ 194 µM) | 1.03 | not detected | 1.45 | 1.03 | fold difference of concentration in D. magna vs acetaminophen (D. magna [2]; after 2 h of exposure): 28 fold; concentration in D. magna (D. magna [2]; [9]): 8730.7 ± 2900.9 ng g^–1 (w.w.); BCF in vivo ratio (D. magna [2]; listed as methylated acetaminophen): about 33
CC(=O)Nc1ccc(O)cc1 [acetaminophen, reference compound] | 0.3 ± 0.0 L kg^–1, w.w. | 3.3 ± 0 | 1.0 | 1.0 | 0.9 | 1 | – | 0.46 | – | – | – | rise of BCF after methylation (D. magna [2]; D. magna, in vivo): approximately 33 fold; concentration in D. magna (D. magna [2]; [9]): 308.7 ± 42.6 ng g^–1 (w.w.); logDlipw ([3]; pH 8.5): 0.89; logDow ([3]; pH 8.5): 0.41; LC50 at 48 h (in vivo [5]; other: waterborne exposure in the test medium): 21.2 ± 2.4 µg/mL (≈ 140 µM); pKa [6]: 9.38
CN1C(=O)CN=C(c2ccccc2)c2cc(Cl)ccc21 [diazepam, reference compound] | 9.0 ± 0.4 L kg^–1, w.w. | – | – | – | 1 | – | – | 2.82 | – | – | – | demethylation in D. magna (demethylated product in exposed D. magna) (D. magna [7]; exposure to individual methylated compound): evident
COC(=O)Cc1ccccc1Nc1c(Cl)cccc1Cl [methylated diclofenac] | – | – | – | – | – | – | – | – | – | – | – | bioaccumulation relative to diclofenac (H. azteca and G. pulex): 25–110 fold
C[C@H](C(=O)O)c1ccc2cc(O)ccc2c1 [DM-naproxen] | 0 L kg^–1, w.w. | – | – | – | 0 | – | 67.9 ± 6 (≈ 314 µM) | – | – | −0.67 | -1.32 | formation rate of demethylated TP (D. magna [1]; Daphnia magna, pH 8.5): 1.5 ± 0.3 nmol g^–1 h^–1; level in D. magna (D. magna [2]; bioaccumulation experiment, 1 mg L^–1 nominal): below the LOD; logDlipw ([3]; pH 8.50, calculated, listed as DM-Naproxen): -0.67
COC(=O)c1ccc(O)cc1 [methylparaben] | 2.8 ± 0.2 L kg^–1, w.w. | 12 ± 1.7 | – | – | 0.41 | 2.7 | 34.4 ± 4.3 (≈ 226 µM) | – | evident | 1.93 | 1.57 | concentration in D. magna (D. magna [2]; [8]): 2216.3 ± 85.7 ng g^–1 (w.w.)
O=C1CN=C(c2ccccc2)c2cc(Cl)ccc2N1 [DM-diazepam, reference compound] | 9.8 ± 0.3 L kg^–1, w.w. | 20 ± 1.7 | – | – | 1 | – | – | – | – | – | – | molar equivalent of demethylated TP in D. magna (D. magna [7]; at the end of depuration): 33.5%
